Source: patent EP1073431B1, “USE OF NMDA ANTAGONISTS FOR TREATMENT OF IRRITABLE BOWEL SYNDROME” (AstraZeneca AB, priority 1998, dated 1999)
Structures can show the parent of a compound that is named as a salt.

Key:
[1] = tested on: visceromotor response (VMR) elicited by colorectal distension (CRD); assay: visceromotor response (VMR) elicited by colorectal distension (CRD) in conscious rats; type: in vivo, Sprague-Dawley rats; settings: for VMR to noxious CRD: CRD 80 mmHg, naive rats; for effect on VMR to CRD: 1-100 nmol, hydrochloride
Procedure: Adult male Sprague-Dawley rats (250-350g, Harlan, San Diego, CA) served as animal subjects. Rats were housed 5-6 per cage, allowed free access to food and water, and were maintained on a 12 h light-dark cycle (lights on between 06.00 and 18.00 h).
Rats were deeply anesthetized with pentobarbital sodium (45 mg/kg, Nembutal, Abbott Labs, North Chicago, IL) administered intraperitoneally. […] The electrode leads were tunneled subcutaneously and exteriorized at the nape of the neck for future access. Some animals were also implanted with venous catheters in the femoral vein to enable i.v. administration of drugs. For intrathecal (i.t.) drug administration, an i.t. catheter (PE-10 tubing, 8.5 cm long) was inserted through the dura overlying the atlanto-occipital junction and threaded to the level of the lumbar enlargement (Yaksh and Rudy, 1976). The venous or i.t. catheter was surgically anchored to musculature at the back of the neck, and externalized with the electrode leads. The wounds were closed in layers with 4-0 silk. Rats were housed singly and allowed to recuperate for at least 3-5 days prior to testing.
The stimulus employed has been previously described (Gebhart and Sengupta, 1996). Briefly, the descending colon and rectum were distended by pressure-controlled air inflation of a 6 cm long flexible latex balloon tied around a flexible tube (Tygon). The balloon was lubricated (Surgilube, E. Fougera and Co., Melville, NY), inserted intra-anally and anchored by taping the balloon catheter to the base of the tail. […] The behavioral response quantified was the visceromotor response, a contraction of the abdominal and hindlimb (Ness and Gebhart, 1988). EMG activity in the external oblique musculature was quantified by computing the average amplitude (Dr. Alfred Bayati Astra Hässle). Each distension trial lasted 60 s and EMG activity was quantified 20 s before distension (baseline), during distension, and 20 s after distension. The increase in EMG amplitude during distension over baseline was recorded as the response.
On the day of testing, animals were briefly anesthetized with Metophane®, and the balloon was inserted and secured in place as described above. Rats were allowed to recover for 30-40 min, following which two stable control responses to CRD (80 mmHg, 20 s, 4 min interstimulus interval) were obtained.
Drugs were administered i.v. into the femoral vein through the indwelling catheter. All doses were administered in a volume of up to 230 µl followed by a flush with 100 µl of preservative-free saline over a period of 30s. Dose response curves were generated using a cumulative dosing paradigm. The first i.v. injection was made 2 min after the second control response. Subsequent doses were injected 8 min apart, thus allowing two distensions after each dose. Data are reported as the average response to the two distensions.
In one group of animals, memantine was administered to the lumbar enlargement through the indwelling i.t. catheter with the aid of a […] injection needle connected to a 25 ul Hamilton syringe by a length of polyethylene tubing (PE-10). All doses were administered in a volume of 5 µl followed by a flush with 10 µl of preservative-free saline over a period of 1 min. The progress of the injection was continuously monitored by following the movement of an air bubble in the tubing. The dose response curve was generated using a cumulative dosing paradigm. The first i.t. injection was made 2 min after the second control response. Subsequent doses were injected 8 min apart, thus allowing two distensions after each dose. Data are reported as the average response to the two distensions. […]

[2] = tested on: pelvic afferent nerve activity; assay: pelvic afferent nerve activity elicited by colorectal distension in anesthetized rats; type: in vivo, Sprague-Dawley rats; settings: intra-arterial, cumulative 1, 3, 6 and 10 mg/kg; CRD 80 mm Hg
Procedure: General procedures: Male Sprague-Dawley rats 425-450 g) were anesthetized initially with sodium pentobarbital (40-45 mg/kg ip) and maintained with α-chloralose (60 mg kg^-1 h^-1). The trachea was cannulated for mechanical ventilation with room air. The left common carotid artery was cannulated for recording blood pressure. The femoral artery and vein were catheterized for injection of drug and anesthetic, respectively. Rats were paralyzed with pancuronium bromide (0.3 mg/kg i.v.) and ventilated with room air (55-60 strokes/min and 3-4 ml stroke volume). Supplemental doses of pancuronium bromide (0.2-0.3 mg kg^-1 h^-1) were given to maintain paralysis during the course of experiment. The mean arterial blood pressure was monitored continuously and maintained at >80 mm Hg with supplemental intravenous injection of 5% dextrose in saline given in a bolus of 1 to 1.5 ml as required. […]
Recordings of afferent nerve action potentials: The S1 dorsal root was identified and decentralized at its entry to the spinal cord. […] Electrical activity of single units was recorded monopolarly by placing a teased fiber over one arm of a bipolar silver-silver chloride electrode; a fine strand of connective tissue was placed across the other pole of the electrode. […]

[3] = i.v., 1-10 mg/kg, conscious rats (figure legends)
[4] = i.v., most effective dose tested 60 mg/kg
[5] = intrathecal (i.t.), up to a dose of 300nmol, conscious rats

| Compound | effect on viscero-motor responses (VMR) to noxious colorectal distension [1, 3] | VMR to noxious CRD [1, 4] | VMR to noxious CRD ([1]; i.v., most effective dose tested (dose not given)) | effect on viscero-motor responses (VMR) to noxious colorectal distension [1, 5] | VMR to noxious CRD ([1]; i.v., most effective dose tested 100 mg/kg) | VMR to noxious CRD ([1]; i.v., most effective dose tested 10 mg/kg) | effect on VMR to CRD ([1]; intrathecal (i.t.), conscious rats) | effect on VMR to CRD ([1]; intrathecal (i.t.), conscious rats, listed as Memantine) | pelvic nerve activity elicited by distention of the colon [2] |
| --- | --- | --- | --- | --- | --- | --- | --- | --- | --- |
| CCNC(Cc1cnccn1)c1ccccc1 (single isomer, unassigned; (+)) [Compound 3, (+) N-ethyl-1-phenyl-2-(3-pyrazine)ethanamine hydrochloride] | dose-dependently (1-10 mg/kg) attenuated VMR | 5 % of control | – | – | – | – | – | – | – |
| N=C(N)c1cccc(CC(N)c2ccccc2)n1 (stereo not shown) [Compound 1, 2-amidino-6-(2-amino-2-phenyl)-ethylpyridine trihydrochloride] | dose-dependently (1-10 mg/kg) attenuated VMR | – | 13 % of control | None of the three compounds attenuated VMR | – | – | – | – | – |
| Cl.NCC(=O)NC(Cc1ccccc1)c1ccccc1 (stereo not shown) [Compound 2, 2-amino-N-(1,2-diphenylethyl)acetamide hydrochloride] | dose-dependently (1-10 mg/kg) attenuated VMR | 40 % of control | – | None of the three compounds attenuated VMR | – | – | – | – | – |
| Cl.NC(Cn1cccn1)c1ccccc1 (stereo not drawn) [Compound 4, alpha-phenyl-1H-pyrazole-1-ethanamine hydrochloride] | dose-dependently (1-10 mg/kg) attenuated VMR | – | – | None of the three compounds attenuated VMR | 10 % of control | – | – | – | – |
| CC12CC3CC(C)(C1)CC(N)(C3)C2 [memantine, memantine hydrochloride, reference compound] | dose-dependantly attenuate VMR | – | – | – | – | 28 % of control | without effect | did not attenuate VMR | reduced, in a dose-dependent fashion |
